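Five compound concentrations were applied to cells in 96-well plates for 48 hours; endpoints were derived by simple linear interpolation of the resulting dose-response curve. GI50 marks 50% less growth. TGI: total growth inhibition.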
Columns and labels:
Experiment in all cases: NCI-60 cell line screen, 48 h
SF-539 CNS = system: SF-539 CNS
HT29 colon = system: HT29 colon
HOP-62 NSCLC = system: HOP-62 NSCLC
NCI-H23 lung = system: NCI-H23 lung
SNB-78 CNS = system: SNB-78 CNS
KM20L2 colon = system: KM20L2 colon
LXFL 529 NSCLC = system: LXFL 529 NSCLC
HOP-18 NSCLC = system: HOP-18 NSCLC
DMS 114 small cell lung = system: DMS 114 small cell lung
DMS 273 small cell lung = system: DMS 273 small cell lung
DLD-1 colon = system: DLD-1 colon
M19-MEL melanoma = system: M19-MEL melanoma

O=C(/C=C/c1cccs1)c1ccc(Cl)s1
TGI (SF-539 CNS): > 100 µM
TGI (HT29 colon): > 10 µM
TGI (HOP-62 NSCLC): > 100 µM
TGI (NCI-H23 lung): 51.2 µM

N#Cc1c(-c2ccccc2)c(C#N)c(=S)n(C2OCC(O)C(O)C2O)c1N (stereo unspecified)
TGI (SF-539 CNS): > 100 µM
TGI (HT29 colon): > 100 µM
TGI (HOP-62 NSCLC): > 100 µM
TGI (NCI-H23 lung): > 100 µM

CC(=O)O[C@H]1CC[C@@]2(C)C(=CC[C@H]3[C@@H]4C/C(=C\c5ccncc5)[C@H](OC(C)=O)[C@@]4(C)CC[C@@H]32)C1
TGI (SF-539 CNS): 15.6 µM
TGI (HT29 colon): 20.3 µM
TGI (HOP-62 NSCLC): 17.7 µM
TGI (NCI-H23 lung): 19.3 µM

COc1cc2c(cc1O)-c1c(OC)c(O)cc3c1C(C2)N(C)CC3 (stereo unspecified)
TGI (SF-539 CNS): > 100 µM
TGI (HT29 colon): > 100 µM
TGI (NCI-H23 lung): > 100 µM

CCN(CC)CCNc1ccc2ncn3c4c(OC)ccc(=O)c4c(O)c1c23
TGI (SF-539 CNS): 31.3 µM
TGI (HT29 colon): > 57.8 µM
TGI (HOP-62 NSCLC): > 100 µM
TGI (NCI-H23 lung): > 92.9 µM

O=C1CSC(c2ccccc2[N+](=O)[O-])N1c1ccc(-n2c(-c3ccccc3)nc3ccccc3c2=O)cc1 (stereo unspecified)
TGI (SF-539 CNS): > 100 µM
TGI (HT29 colon): > 100 µM
TGI (HOP-62 NSCLC): 54.1 µM
TGI (NCI-H23 lung): > 100 µM

Cc1ccc(C(=O)c2[nH]c(Nc3ccc(Cl)cc3)c(C(=S)Nc3ccccc3)c2N)cc1
TGI (SF-539 CNS): 17.7 µM
TGI (HT29 colon): 16.8 µM
TGI (HOP-62 NSCLC): 15.3 µM
TGI (NCI-H23 lung): 9.1 µM

Cc1cn(CCCCOC(=O)NC(CCCNC(N)=O)C(=O)O)c(=O)[nH]c1=O (stereo unspecified)
TGI (SF-539 CNS): > 100 µM
TGI (HT29 colon): > 100 µM
TGI (HOP-62 NSCLC): > 100 µM
TGI (NCI-H23 lung): > 100 µM

N#Cc1nc(NC(=O)c2ccccc2)sc1N
TGI (SF-539 CNS): > 10 µM
TGI (HT29 colon): > 10 µM
TGI (HOP-62 NSCLC): > 10 µM
TGI (NCI-H23 lung): > 10 µM

CCOC(=O)c1nc2cc(C(F)(F)F)ccc2nc1Oc1ccc(C(=O)OC)cc1
TGI (SF-539 CNS): > 100 µM

Nc1nc(NCC2(CO)CC(CCc3ccccc3)C2)cc(=O)[nH]1 (stereo unspecified)
TGI (HT29 colon): > 100 µM
TGI (HOP-62 NSCLC): > 100 µM
TGI (NCI-H23 lung): > 100 µM

CC(=O)[C@]1(C)[C@H](C)O[C@](C)(CO)[C@H]1O[Si](C)(C)c1ccccc1
TGI (SF-539 CNS): > 100 µM
TGI (HT29 colon): > 100 µM
TGI (HOP-62 NSCLC): > 100 µM
TGI (NCI-H23 lung): 81 µM

CC1=C2c3ccccc3N(S(=O)(=O)c3ccccc3)[C@H]2[C@H](C(=O)N2C3CC4CC[C@@]3(CS2(=O)=O)C4(C)C)CC1 (stereo partly specified)
TGI (SF-539 CNS): > 100 µM
TGI (HT29 colon): > 100 µM
TGI (HOP-62 NSCLC): > 100 µM
TGI (NCI-H23 lung): > 100 µM

CCCCC1=CC1(C#N)[N+](=O)[O-] (stereo unspecified)
TGI (SF-539 CNS): > 100 µM
TGI (HT29 colon): > 100 µM
TGI (HOP-62 NSCLC): > 100 µM
TGI (NCI-H23 lung): > 100 µM

CC(=O)OC(C#N)CC(C)(C)/[N+]([O-])=[N+](\[O-])C(C)(C)CC(C#N)OC(C)=O (stereo unspecified)
TGI (HT29 colon): 65.8 µM
TGI (HOP-62 NSCLC): 36.2 µM
TGI (NCI-H23 lung): 34 µM

COC(=O)C1CCC[C@H]2C(CO)=C(C)C(=O)[C@@H]12 (stereo partly specified)
TGI (SNB-78 CNS): > 100 µM
TGI (SF-539 CNS): > 100 µM
TGI (KM20L2 colon): > 100 µM
TGI (LXFL 529 NSCLC): > 100 µM
TGI (HOP-18 NSCLC): > 100 µM
TGI (DMS 114 small cell lung): > 100 µM
TGI (HT29 colon): > 100 µM
TGI (DMS 273 small cell lung): > 100 µM
TGI (HOP-62 NSCLC): > 100 µM
TGI (NCI-H23 lung): > 100 µM
TGI (DLD-1 colon): > 100 µM

O=C1C(Cl)C(c2cccc(Br)c2)N1c1c(O)c(Cl)cc(Br)c1Cl (stereo unspecified)
TGI (SF-539 CNS): 32.6 µM
TGI (HT29 colon): 23 µM
TGI (HOP-62 NSCLC): 32.4 µM
TGI (NCI-H23 lung): 37.9 µM

Cc1cccc(Nc2nc(NNC(=O)Cc3ccccc3)nc(NNC(=O)c3ccncc3)n2)c1
TGI (SF-539 CNS): > 10 µM
TGI (HT29 colon): > 10 µM
TGI (HOP-62 NSCLC): > 10 µM
TGI (NCI-H23 lung): > 10 µM

C[N+]1(CCCC[N+]2(C)CCCCCCC2)CCCCCCC1
TGI (HT29 colon): > 100 µM
TGI (HOP-62 NSCLC): > 100 µM
TGI (NCI-H23 lung): > 100 µM

COc1cc(/C=C2/C(=O)N=C(NC(C)=O)N2C)ccc1OC(C)=O
TGI (SF-539 CNS): > 100 µM
TGI (HT29 colon): > 100 µM
TGI (HOP-62 NSCLC): > 100 µM
TGI (NCI-H23 lung): > 100 µM

c1ccc(C2=NN[C@H](c3cn(-c4ccccc4)nc3-c3ccccc3)C2)cc1
GI50 (SF-539 CNS): 9.11 µM
TGI (SF-539 CNS): > 100 µM
GI50 (HT29 colon): > 100 µM
TGI (HT29 colon): > 100 µM
GI50 (HOP-62 NSCLC): 2.16 µM
TGI (HOP-62 NSCLC): 5.58 µM
GI50 (NCI-H23 lung): 7.21 µM
TGI (NCI-H23 lung): > 100 µM

O=C(/C=C/c1ccc(O)cc1)c1cc(O)cc(O)c1
TGI (SF-539 CNS): 26.5 µM
TGI (HT29 colon): 35 µM
TGI (HOP-62 NSCLC): 29 µM
TGI (NCI-H23 lung): 43.3 µM

CCCCCCCSCC1OC(n2cnc3c(N)ncnc32)C(O)C1O (stereo unspecified)
TGI (SNB-78 CNS): > 100 µM
TGI (SF-539 CNS): > 100 µM
TGI (KM20L2 colon): > 100 µM
TGI (LXFL 529 NSCLC): 29.8 µM
TGI (HOP-18 NSCLC): 68.2 µM
TGI (DMS 114 small cell lung): 71.1 µM
TGI (HT29 colon): 4.51 µM
TGI (DMS 273 small cell lung): 54.2 µM
TGI (NCI-H23 lung): > 100 µM
TGI (DLD-1 colon): 28.7 µM

Clc1ccc2c(Cl)nc(-c3ccccc3)nc2c1
TGI (SNB-78 CNS): 91 µM
TGI (KM20L2 colon): 68 µM
TGI (LXFL 529 NSCLC): > 100 µM
TGI (DMS 114 small cell lung): 74 µM
TGI (HT29 colon): > 100 µM
TGI (DMS 273 small cell lung): > 100 µM
TGI (HOP-62 NSCLC): > 100 µM
TGI (M19-MEL melanoma): > 100 µM
TGI (NCI-H23 lung): 35.9 µM
TGI (DLD-1 colon): > 100 µM

COC(=O)C(CCSc1ccccc1)C(=O)OC
TGI (SF-539 CNS): > 100 µM
TGI (HT29 colon): > 100 µM
TGI (HOP-62 NSCLC): > 100 µM
TGI (NCI-H23 lung): > 100 µM

COc1cc(O)c2c(c1O)C(=O)c1cc(C)ncc1C2=O
TGI (SNB-78 CNS): > 50 µM
TGI (SF-539 CNS): > 50 µM
TGI (KM20L2 colon): > 50 µM
TGI (LXFL 529 NSCLC): > 50 µM
TGI (HOP-18 NSCLC): > 50 µM
TGI (DMS 114 small cell lung): > 50 µM
TGI (HT29 colon): > 50 µM
TGI (HOP-62 NSCLC): > 50 µM
TGI (M19-MEL melanoma): 23.8 µM
TGI (NCI-H23 lung): 27.2 µM
TGI (DLD-1 colon): > 50 µM

C=CCOCn1ccc(NC(=O)c2ccccc2)nc1=O
TGI (SF-539 CNS): > 100 µM
TGI (HT29 colon): > 100 µM
TGI (HOP-62 NSCLC): > 100 µM
TGI (NCI-H23 lung): > 100 µM

Cc1ccc(Nc2cc(=O)[nH]c(=O)[nH]2)cc1CS
TGI (SF-539 CNS): > 100 µM
TGI (HT29 colon): > 100 µM
TGI (HOP-62 NSCLC): > 100 µM
TGI (NCI-H23 lung): > 100 µM

COC(=O)C1=C(OC(=O)/C(=C/c2c(F)cccc2F)c2ccccc2)C(C(=O)OC)[C@@]2(O)[C@@H](C(=O)OC)[C@H](C)C[C@@H]1[C@@H]2C(=O)OC (stereo partly specified)
TGI (SF-539 CNS): > 100 µM
TGI (HT29 colon): > 100 µM
TGI (HOP-62 NSCLC): > 100 µM
TGI (NCI-H23 lung): > 100 µM

CN(C)c1ccc(/C=C2\N=C(c3ccccc3)N(/N=C3\C(=O)Nc4ccccc43)C2=O)cc1
TGI (SF-539 CNS): > 100 µM
TGI (HT29 colon): > 100 µM
TGI (HOP-62 NSCLC): > 100 µM
TGI (NCI-H23 lung): > 100 µM

CCCCCCCCCCCCCCCCNc1ccc2c(c1)OCCOCCOCCOCCO2
TGI (SF-539 CNS): 9.43 µM
TGI (HT29 colon): 10.9 µM
TGI (HOP-62 NSCLC): 7.28 µM
TGI (NCI-H23 lung): 11.5 µM

CC1C(=O)CC[C@@]2(C)C(=O)CCCC12O (stereo partly specified)
TGI (SF-539 CNS): > 100 µM
TGI (HT29 colon): > 100 µM
TGI (HOP-62 NSCLC): > 100 µM
TGI (NCI-H23 lung): > 100 µM
